US20190060249A1 (priority 2017, published 2019)

Experiments:
ALDH5A1 = biological target: T1, ALDH5A1 (Homo sapiens, UniProt P51649); assay: ALDH enzymatic assay, recombinant ALDH5A1; type: biochemical; settings: 5 μg/ml recombinant enzyme, 10 mM acetaldehyde, 20 μM Alda-341
T1 sequence (P51649 48-535): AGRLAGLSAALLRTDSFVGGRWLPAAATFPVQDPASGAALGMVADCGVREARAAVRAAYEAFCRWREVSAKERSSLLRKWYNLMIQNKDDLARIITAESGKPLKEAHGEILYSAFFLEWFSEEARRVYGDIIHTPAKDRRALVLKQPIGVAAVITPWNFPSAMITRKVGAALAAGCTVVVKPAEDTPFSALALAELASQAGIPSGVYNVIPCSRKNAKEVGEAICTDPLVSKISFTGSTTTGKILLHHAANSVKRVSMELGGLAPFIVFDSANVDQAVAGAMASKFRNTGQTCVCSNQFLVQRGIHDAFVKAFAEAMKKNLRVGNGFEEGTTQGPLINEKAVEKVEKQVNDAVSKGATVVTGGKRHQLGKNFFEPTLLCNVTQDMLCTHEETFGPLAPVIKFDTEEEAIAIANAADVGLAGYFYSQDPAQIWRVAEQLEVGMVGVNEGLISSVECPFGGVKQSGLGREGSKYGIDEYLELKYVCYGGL
Description: (§1) ALDH enzymatic assay: ALDH1A1, ALDH1A2, 2, 3A1, 3A2, 4A1, 5A1, 7A1 were measured as previously described using 5 μg/ml of recombinant protein (Chen, C. H., Cruz, L. A., and Mochly-Rosen, D. (2015) Pharmacological recruitment of aldehyde dehydrogenase 3A1 (ALDH3A1) to assist ALDH2 in acetaldehyde and ethanol metabolism in vivo. Proceedings of the National Academy of Sciences of the United States of America 112, 3074-3079). […] Assays were conducted in 50 mM NaPPi buffer (pH 7.4) in the presence of 2.5 mM NAD^+ and 10 mM substrate and measured in triplicate at 25° C. Dose response curve fits and EC50's were calculated using GraphPad Prism 7 software.

ALDH3A1 = biological target: T2, ALDH3A1 (Homo sapiens, UniProt P30838); assay: ALDH enzymatic assay (spectrophotometric), recombinant ALDH3A1; type: biochemical
T2 sequence (P30838 1-453): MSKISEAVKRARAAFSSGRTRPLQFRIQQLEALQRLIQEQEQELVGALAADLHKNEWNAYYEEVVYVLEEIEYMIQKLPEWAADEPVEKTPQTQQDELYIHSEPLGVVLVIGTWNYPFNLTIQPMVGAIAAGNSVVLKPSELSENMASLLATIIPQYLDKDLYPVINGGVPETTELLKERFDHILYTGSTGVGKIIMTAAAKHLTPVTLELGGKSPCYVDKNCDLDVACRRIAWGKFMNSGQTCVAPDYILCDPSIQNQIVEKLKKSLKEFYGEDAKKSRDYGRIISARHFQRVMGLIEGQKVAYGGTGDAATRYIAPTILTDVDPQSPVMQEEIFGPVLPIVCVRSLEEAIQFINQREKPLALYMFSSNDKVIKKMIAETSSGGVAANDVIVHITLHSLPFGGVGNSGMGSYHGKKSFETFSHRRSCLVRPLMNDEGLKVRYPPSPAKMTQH
Text: To determine if ALDH3A1 activation is sufficient to protect salivary glands from radiation-induced dysfunction, a library of 135 traditional Chinese medicine extracts donated from Sun Ten Pharmaceutical Co., Taiwan, was screened using a spectroscopic enzyme activity assay and purified recombinant ALDH3A1. […] We then conducted high performance liquid chromatography (HPLC) fractionation of the extracts and nuclear magnetic resonance (NMR) characterization of the fractions. Based on the NMR fingerprint, we identified known constituents of similar fingerprints and purchased the commercially available compounds to test using the enzyme activity assay.
as §1
Activity measured in presence of compound concentrations from 6 nM to 400 μM.

[1] = system: SAS (human papillomavirus [HPV]-negative) head and neck squamous cell carcinoma cell line; assay: Xenograft study, SAS; type: in vivo, SCID mice; settings: Alda-341 from one week ahead of irradiation, during and post; 30 Gy over 5 fractions
Description: Xenograft study: Six-week old SCID mice were purchased from the Jackson laboratory and five mice per group were used. SCC90 and SAS cells (2×10^6 cells/injection) were implanted into both flanks of each mouse. Alda-341 treated one week ahead of irradiation and continued during and post radiation. Total 30 Gy over 5 fractions in a week was delivered to the tumor with the rest of the body shielded. Tumor size was measured every 1-2 days. Tumor volume was calculated by the formula (π×length×width×height)/6.

**Q.** For `C=C(C)[C@H]1CC=C(C)CC1` [Alda-341, D-limonene], which “catalytic activity of ALDH5A1” value (ALDH5A1) is on record?
**A.** Its value is “did not increase”.

**Q.** What about the “substrate specificity of increase in ALDH3A1 catalytic activity” value (ALDH3A1; 10 mM acetaldehyde, propionaldehyde, benzaldehyde, cinnamaldehyde, decanal, heptaldehyde or 200 μM 4-hydroxynonenal, 100 μM compound) of the same compound?
**A.** Its value is “only increase the catalytic activity of ALDH3A1 towards small aldehydes like acetaldehyde and propionaldehyde but not aromatic or long-chain aldehydes”.

**Q.** What about the Amax (ALDH3A1; normalized to baseline activity, GraphPad Prism curve fit) of the same compound?
**A.** The Amax was about 4.6.

**Q.** And the EC50 (ALDH3A1; recombinant ALDH3A1, spectrophotometric enzyme activity assay, concentrations 6 nM to 400 μM)?
**A.** The EC50 was about 14 µM.

**Q.** And the “tumor growth and protection of tumors from radiation, SAS xenograft” value [1]?
**A.** Its value is “did not increase tumor growth or protect tumors from radiation”.
